Measurements taken from patent publication US20240254564A1, “METHODS FOR PREDICTING AND TREATING CHEMORESISTANCE IN SMALL CELL LUNG CANCER PATIENTS” (MEMORIAL SLOAN-KETTERING CANCER CENTER, priority 2021, published 2024).

Legend:
[1] = test system: Lx108-R ASCL1^high cisplatin/etoposide-resistant SCLC PDX; experiment: In vivo treatment, tumor growth of cisplatin/etoposide-resistant SCLC PDX Lx108-R; design: species or system mice; conditions: right after chemotherapy relapse in vivo
Description: (§1) For treatments, 5-10 NOD.Cg-Prkd^scid Il2rg^tm1Wjl/SzJ (NSG) mice were engrafted per treatment arm and incubated until they reached 100-150 mm^3. At that point, mice were randomized into groups and treated with either vehicle, Cisplatin (2 mg/kg i.p. once/week), Etoposide (3 mg/kg i.p. QD×3), Selinexor (10 mg/kg p.o. QD×3), irinotecan (50 mg/kg i.p. WQ), or the combinations of cisplatin+etoposide, cisplatin+Selinexor, cisplatin+etoposide+Selinexor or irinotecan+Selinexor, at the previously mentioned doses. Mice weights and tumor volumes were measured twice a week and mice were sacrificed when tumors reached humane endpoint. All animal experiments were approved by the Memorial Sloan Kettering Cancer Center (MSKCC) Animal Care and Use Committee.

[2] = test system: Lx304B ASCL1^high SCLC PDX from chemorelapsed tumor; experiment: In vivo treatment, tumor growth of chemorelapsed SCLC PDX Lx304B; conditions: Lx304B PDX in NSG mice; day 24; irinotecan 50 mg/kg i.p. WQ, Selinexor 10 mg/kg p.o. QDx3
Description: as §1

[3] = test system: AKT/mTOR pathway in H69 and H82 cell lines; experiment: Western blot of AKT/mTOR pathway activation; assay type: cell-based; design: concentration or dose not given beside the values; conditions: selinexor or combinations for 7 days
Description: FIGS. 9A-9G show impairment of chemotherapy-induced AKT/mTOR overactivation may contribute to selinexor efficacy in combination with chemotherapy. […] Synergy plots, showing the occurrence of synergy, addition, or antagonism (green), were calculated with the HSA method using the SynergyFinder web application (2.0).
(§2) Protein extraction and western blot were performed as previously described in Gardner, E. E. et al., Cancer Cell 31: 286-299 (2017), which is incorporated by reference in its entirety herein. Antibodies for pγH2AX (#39117, Active Motif, Carlsbad, CA), pATR (#53217, Cell Signaling Technology, Danvers, MA, Danvers, MA), ATR (#13934, Cell Signaling Technology, Danvers, MA, Danvers, MA), pATM (#31068, Cell Signaling Technology, Danvers, MA, Danvers, MA), ATM (#2873, Cell Signaling Technology, Danvers, MA, Danvers, MA), pChk2 (#12298, Cell Signaling Technology, Danvers, MA, Danvers, MA), Chk2 (#2662, Cell Signaling Technology, Danvers, MA, Danvers, MA), MSH2 (#2017, Cell Signaling Technology, Danvers, MA, Danvers, MA), MLH1 (#3515, Cell Signaling Technology, Danvers, MA, Danvers, MA), XPO1 (#46249, Cell Signaling Technology, Danvers, MA, Danvers, MA), and actin (#3700, Cell Signaling Technology, Danvers, MA, Danvers, MA). Quantifications were performed with the Image Studio software (Version 3.1, LI-COR Biosciences, Lincoln, NE). Immunohistochemistry for Exportin-1 was performed with the Exportin-1 antibody #611833 from BD in TMAs including resected tumor samples form SCLC and NSCLC patients. All study subjects had provided signed informed consent for biospecimen analyses under an Institutional Review Board-approved protocol.

[4] = test system: Lx1322 non-NE SCLC PDX from chemorelapsed tumor; experiment: In vivo treatment, tumor growth of chemorelapsed SCLC PDX Lx1322; conditions: Lx1322 PDX in NSG mice; day 14; irinotecan 50 mg/kg i.p. WQ, Selinexor 10 mg/kg p.o. QDx3
Description: as §1

XPO1-KO (sgXPO1) cells = experiment: Selinexor specificity assay: viability of XPO1-expressing and XPO1-KO isogenic cells; assay type: cell-based; conditions: XPO1-KO isogenic cell line; viability normalized to untreated
From the text: HSA synergy scores for H69 Cisplatin+Selinexor and H69 Cisplatin+KPT-185 are 6.55 and 8.52, respectively. HSA synergy scores for H82 Cisplatin+Selinexor and H82 Cisplatin+KPT-185 are 12.29 and 10.68, respectively. […] The sequence of the sgXPO1 is AACCTGAACGAAATGCCTG (SEQ ID NO: 16). […] Two tailed Student's t-test was used to assess statistical significance of the differential expression between groups. p-values legend: * p<0.05, ** p<0.01, *** p<0.001.

[5] = test system: Lx33 NEUROD1^high chemonaive SCLC PDX; experiment: In vivo treatment, tumor growth of chemonaive SCLC PDX Lx33; conditions: Lx33 PDX in NSG mice; day 17; cisplatin 2 mg/kg i.p. once/week, etoposide 3 mg/kg i.p. QDx3, Selinexor 10 mg/kg p.o. QDx3
Description: as §1

H82 cells = experiment: Propidium iodide / annexin V apoptosis assay by flow cytometry; assay type: cell-based; conditions: GI20 concentrations, 3 days
Description: Parental cells were treated with cisplatin (GI20), Selinexor (GI20) or their combination for 3 days. Alternatively, control and XPO1 CRISPR-KO cells were treated with cisplatin […] for 3 days. Then, cells were collected and stained with the APC Annexin V Apoptosis Detection Kit with PI (#640932, Biolegend, San Diego, CA) and apoptosis was analyzed by flow cytometry as previously described in Shrestha, C. L. et al., PLoS One 12: 1-17 (2017).

[6] = test system: Lx304 ASCL1^high chemonaive SCLC PDX; experiment: In vivo treatment, tumor growth of chemonaive SCLC PDX Lx304; conditions: Lx304 PDX in NSG mice; day 14; cisplatin 2 mg/kg i.p. once/week, etoposide 3 mg/kg i.p. QDx3, Selinexor 10 mg/kg p.o. QDx3
Description: as §1

[7] = test system: DNA damage response pathways in H82 cells; experiment: Western blot of DNA damage sensing and repair proteins; assay type: cell-based
Description: as §2

Row | SMILES | T/C percentage at experiment endpoint [1] [%] | T/C percentage values at control arm endpoint [2] [%] | phosphorylation of mTOR, AKT and PRAS40 / AKT/mTOR pathway activation (Western blot) [3] | T/C percentage values at control arm endpoint [4] [%] | cell viability after Selinexor treatment in the XPO1-KO cell line (XPO1-KO (sgXPO1) cells) | T/C percentage values at control arm endpoint [5] [%] | apoptosis (propidium iodide/annexin V) (H82 cells) | T/C percentage values at control group endpoint [6] [%] | reduction in the expression of MSH2 and MLH1 (Western blot) ([7]; Selinexor treatment) | activation of ATR and ATM (Western blot) ([7]; cisplatin treatment)
1 | CCc1c2c(nc3ccc(OC(=O)N4CCC(N5CCCCC5)CC4)cc13)-c1cc3c(c(=O)n1C2)COC(=O)[C@]3(O)CC [irinotecan] | 75.27 | 23.82 | induced | 18.09 |  |  |  |  |  | 
2 | O=C(/C=C\n1cnc(-c2cc(C(F)(F)F)cc(C(F)(F)F)c2)n1)NNc1cnccn1 [Selinexor] |  |  | suppressed |  | no effect in viability | 40.99 | increased apoptosis | 38.52 | not observed | 
3 | COc1cc([C@@H]2c3cc4c(cc3[C@@H](O[C@@H]3O[C@@H]5CO[C@@H](C)O[C@H]5[C@H](O)[C@H]3O)[C@H]3COC(=O)[C@H]23)OCO4)cc(OC)c1O [etoposide] |  |  |  |  |  | 63.14 |  | 54.59 |  | 
4 | N.N.[Cl][Pt][Cl] [cisplatin] |  |  | Increased phosphorylation |  |  | 79.73 |  | 67.04 |  | activated
